Where two headings read alike, the source gives them in different places.
Experiments:
[1] = target: PDE4B (aa 152-484, Uniprot ID Q07343) (Homo sapiens (Human), UniProt Q07343); assay: PDE4 SPA assay (scintillation proximity assay); format: biochemical; settings: read-out: PDE4B2 IC50
Procedure, shortened: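 PDE4B (aa 152-484, ~81.6 pM) preincubated ~10 min with compound, then 1 μM ³H/unlabeled cAMP added in Tris pH 7.5, 1.3 mM MgCl2, 0.004% Brij 35, ~2% DMSO; 30 min at RT. Product captured on SPA beads and counted; IC50 by four-parameter logistic fit.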

IL-4 = assay: Cytokine assay: IL-4 release from PHA-L stimulated human PBMCs; format: cell-based; settings: read-out: IL4 IC50
Procedure, shortened: (§1)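 IC50 values came from four-parameter logistic fits of supernatant cytokine, which was quantified by HTRF. Mitogen stimulation used PHA-L at a final 3.5 μg/mL on about 250,000 thawed human PBMCs per well, in serum-containing RPMI medium with 0.25% DMSO, for 48 h.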

IL-13 = assay: Cytokine assay: IL-13 release from PHA-L stimulated human PBMCs; format: cell-based; settings: read-out: IL13 IC50
Procedure, shortened: as §1

IFNγ = assay: Cytokine assay: IFNγ release from PHA-L stimulated human PBMCs; format: cell-based
Procedure, shortened: as §1

Chain of PDE4B (aa 152-484, Uniprot ID Q07343) (Q07343 324-656): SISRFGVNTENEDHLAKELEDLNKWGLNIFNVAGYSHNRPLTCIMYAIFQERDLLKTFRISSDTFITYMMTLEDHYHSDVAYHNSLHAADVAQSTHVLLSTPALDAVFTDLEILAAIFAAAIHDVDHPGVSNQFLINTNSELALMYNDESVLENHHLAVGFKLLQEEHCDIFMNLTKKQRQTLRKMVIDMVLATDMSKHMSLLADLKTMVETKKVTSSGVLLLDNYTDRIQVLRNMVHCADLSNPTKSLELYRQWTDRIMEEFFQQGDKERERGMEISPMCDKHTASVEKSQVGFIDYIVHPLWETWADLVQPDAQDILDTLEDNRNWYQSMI

SMILES | IC50 [1] [nM] | IC50 (IL-4; Homo sapiens, PBMC) [nM] | IC50 (IL-13) [nM] | IC50 (IFNγ) [nM] | IC50 (IL-4) [nM] | IC50 (IFNγ; Homo sapiens, PBMC) [nM] | IC50 (IL-13; Homo sapiens, PBMC) [nM]
COc1ccc(-c2cncc(C3COB(O)C3)c2)cc1OC1CCSC1 (centres unmarked) [Example 78, 4-(5-(4-methoxy-3-((tetrahydrothiophen-3-yl)oxy)phenyl)pyridin-3-yl)-1,2-oxaborolan-2-ol] | 0.55 | 19.1 | 416 | 1.35 |  |  | 
COc1ccc(-c2cncc(C3COB(O)C3)c2)cc1OC1CCSC1 (centres unmarked) [Example 79, 4-(5-(4-methoxy-3-((tetrahydrothiophen-3-yl)oxy)phenyl)pyridin-3-yl)-1,2-oxaborolan-2-ol] | 1.38 |  | 748 | 0.82 | 13.3 |  | 
COc1ccc(-c2cncc(C3COB(O)C3)c2)cc1OC1CCSC1 (centres unmarked) [Example 80, 4-(5-(4-methoxy-3-((tetrahydrothiophen-3-yl)oxy)phenyl)pyridin-3-yl)-1,2-oxaborolan-2-ol] | 1.34 |  | 2150 | 4.62 | 19.8 |  | 
CCCOc1c(OC)ccc(-c2cncc(C3COB(O)C3)c2)c1F (centres unmarked) [Example 81, 4-(5-(2-fluoro-4-methoxy-3-propoxphenyl)pyridin-3-yl)-1,2-oxaborolan-2-ol] | 2.36 |  | 858 |  | 54.4 | 1.62 | 
CCCOc1cc(-c2cncc(C3COB(O)C3)c2C)ccc1OC (centres unmarked) [Example 84, 4-(5-(4-methoxy-3-propoxyphenyl)-4-methylpyridin-3-yl)-1,2-oxaborolan-2-ol] | 1.24 | 0.9 |  |  |  | 0.44 | 444
CCCOc1c(OC)ccc(-c2cccc(C3COB(O)C3)n2)c1C#N (centres unmarked) [Example 86, 6-(6-(2-hydroxy-1,2-oxaborolan-4-yl)pyridin-2-yl)-3-methoxy-2-propoxybenzonitrile] | 7.26 | 105 |  |  |  | 5 | 1330
CCCOc1cc(-c2cccc(C3COB(O)C3)c2)ccc1OC (centres unmarked) [Example 88, 4-(4′-methoxy-3′-propoxy-[1,1′-biphenyl]-3-yl)-1,2-oxaborolan-2-ol] | 2.64 | 63.7 |  |  |  | 6.14 | 609
CCOc1cc(-c2nc(C3COB(O)C3)cs2)c(F)cc1OC (centres unmarked) [Example 91, 4-(2-(5-ethoxy-2-fluoro-4-methoxyphenyl)thiazol-4-yl)-1,2-oxaborolan-2-ol] | 3 | 5.9 |  |  |  | 3.92 | 460
COc1cnc(-c2cccc(C3COB(O)C3)c2)nc1OC1CCCC1 (centres unmarked) [Example 93, 4-(3-(4-(cyclopentyloxy)-5-methoxypyrimidin-2-yl)phenyl)-1,2-oxaborolan-2-ol] | 0.5 | 9.87 |  |  |  | 1.66 | 460
CCOc1c(OC)ccc(-c2cncc(C3COB(O)C3)c2)c1C(F)(F)F (centres unmarked) [Example 94, 4-(5-(3-ethoxy-4-methoxy-2-(trifluoromethyl)phenyl)pyridin-3-yl)-1,2-oxaborolan-2-ol] | 12.5 | 9.58 |  |  |  | 3.88 | 606
CCOc1ccc(-c2cncc(C3COB(O)C3)c2)cc1OCC (centres unmarked) [Example 96, 4-(5-(3,4-diethoxyphenyl)pyridin-3-yl)-1,2-oxaborolan-2-ol] | 1.69 | 48.9 |  |  |  | 5.27 | 965
CSc1ccc(-c2cncc(C3COB(O)C3)c2)cc1OC1CCCC1 (centres unmarked) [Example 99, 4-(5-(3-(cyclopentyloxy)-4-(methylthio)phenyl)pyridin-3-yl)-1,2-oxaborolan-2-ol] | 1.37 | 44.3 |  |  |  | 9.42 | 957
CCCOc1cc(-c2cncc(C3COB(O)C3)c2)ccc1OCC (centres unmarked) [Example 104, 4-(5-(4-ethoxy-3-propoxyphenyl)pyridin-3-yl)-1,2-oxaborolan-2-ol] | 3.58 | 29.4 |  |  |  | 5.46 | 750
COc1ccc(-c2cncc(C3COB(O)C3)c2)c(F)c1OC (centres unmarked) [Example 107, 4-(5-(2-fluoro-3,4-dimethoxyphenyl)pyridin-3-yl)-1,2-oxaborolan-2-ol] | 2.41 | 27.1 | 613 |  |  | 4.17 | 
COc1ccc(-c2cncc(C3COB(O)C3)c2)c(F)c1OC (centres unmarked) [Example 109, 4-(5-(2-fluoro-3,4-dimethoxyphenyl)pyridin-3-yl)-1,2-oxaborolan-2-ol] | 4.18 |  | 1270 | 6.24 | 22.7 |  | 
CCCCCOc1cc(-c2cccc(C3COB(O)C3)c2)ccc1OC (centres unmarked) [Example 110, 4-(4′-methoxy-3′-(pentyloxy)-[1,1′-biphenyl]-3-yl)-1,2-oxaborolan-2-ol] | 0.61 | 48.4 |  |  |  | 5.1 | 496

SMILES | IC50 [1] [nM] | IC50 (IL-4; Homo sapiens, PBMC) [nM] | IC50 (IL-13) [nM] | IC50 (IFNγ) [nM] | IC50 (IL-4) [nM] | IC50 (IFNγ; Homo sapiens, PBMC) [nM] | IC50 (IL-13; Homo sapiens, PBMC) [nM]
CCCOc1cc(-c2cncc(C3COB(O)C3)c2)ccc1SC (centres unmarked) [Example 112, 4-(5-(4-(methylthio)-3-propoxyphenyl)pyridin-3-yl)-1,2-oxaborolan-2-ol] | 1.41 |  |  | 8.1 | 79.9 |  | 588
CCCOc1cc(-c2cncc(C3COB(O)C3)n2)ccc1OC (centres unmarked) [Example 115, 4-(6-(4-methoxy-3-propoxyphenyl)pyrazin-2-yl)-1,2-oxaborolan-2-ol] | 1.1 | 38.4 |  |  |  | 1.68 | 509
COc1cc(-c2cccc(C3COB(O)C3)c2)cc(C#N)c1OC (centres unmarked) [Example 117, 3′-(2-hydroxy-1,2-oxaborolan-4-yl)-4,5-dimethoxy-[1,1′-biphenyl]-3-carbonitrile] | 1.8 | 64.2 |  |  |  | 10 | 520
CCOc1cc(-c2cncc(C3COB(O)C3)c2)cc(C#N)c1OC (centres unmarked) [Example 118, 3-ethoxy-5-(5-(2-hydroxy-1,2-oxaborolan-4-yl)pyridin-3-yl)-2-methoxybenzonitrile] | 0.9 | 9.78 |  |  |  | 2.65 | 531
CCOc1nc(-c2cccc(C3=CB(O)OC3)c2)ccc1OC [Example 120, 4-(3-(6-ethoxy-5-methoxypyridin-2-yl)phenyl)-1,2-oxaborol-2(5H)-ol] | 1.11 | 171 |  |  |  | 7.85 | 2090
CCOc1nc(-c2cccc(C3COB(O)C3)c2)ccc1OC (centres unmarked) [Example 121, 4-(3-(6-ethoxy-5-methoxypyridin-2-yl)phenyl)-1,2-oxaborolan-2-ol] | 0.69 | 57.4 |  |  |  | 1.5 | 533
CCCOc1cc(-c2nc(C3COB(O)C3)cc(C(F)(F)F)n2)ccc1OC (centres unmarked) [Example 124, 4-(2-(4-methoxy-3-propoxyphenyl)-6-(trifluoromethyl)pyrimidin-4-yl)-1,2-oxaborolan-2-ol] | 2.2 |  | 1660 | 10.1 | 9.48 |  | 
COc1ccc(-c2cncc(C3COB(O)C3)n2)cc1OC1CCCC1 (centres unmarked) [Example 125, 4-(6-(3-(cyclopentyloxy)-4-methoxyphenyl)pyrazin-2-yl)-1,2-oxaborolan-2-ol] | 1.7 | 11.3 |  |  |  | 2.43 | 577
COc1ccc(-c2cccc(C3=CB(O)OC3)c2)cc1OC1CCCC1 [Example 129, 4-(3′-(cyclopentyloxy)-4′-methoxy-[1,1′-biphenyl]-3-yl)-1,2-oxaborol-2(5H)-ol] | 4.04 | 34.5 |  |  |  | 24.6 | 3340
COc1ccc(-c2cccc(C3COB(O)C3)c2)cc1OC1CCCC1 (centres unmarked) [Example 130, 4-(3′-(cyclopentyloxy)-4′-methoxy-[1,1′-biphenyl]-3-yl)-1,2-oxaborolan-2-ol] | 1.6 | 120 |  |  |  | 3.21 | 587
COc1cc(C2COB(O)C2)nc(-c2ccc(OC)c(OC3CCCC3)c2)n1 (centres unmarked) [Example 132, 4-(2-(3-(cyclopentyloxy)-4-methoxyphenyl)-6-methoxypyrimidin-4-yl)-1,2-oxaborolan-2-ol] | 2.63 | 12.9 |  |  |  | 2.42 | 604
CCCOc1cc(-c2nc(CC(=O)O)cc(C3COB(O)C3)n2)ccc1OC (centres unmarked) [Example 134, 2-(6-(2-hydroxy-1,2-oxaborolan-4-yl)-2-(4-methoxy-3-propoxyphenyl)pyrimidin-4-yl)acetic acid] | 7.46 | 1.79 |  |  |  | 3.04 | 1110
CCCOc1cc(-c2nc(C3COB(O)C3)ccc2F)ccc1OC (centres unmarked) [Example 135, 4-(5-fluoro-6-(4-methoxy-3-propoxyphenyl)pyridin-2-yl)-1,2-oxaborolan-2-ol] | 10.3 | 15.3 |  |  |  | 7.24 | 668
CCOc1cc(-c2cncc(C3COB(O)C3)c2C(F)F)ccc1OC (centres unmarked) [Example 138, 4-(4-(difluoromethyl)-5-(3-ethoxy-4-methoxyphenyl)pyridin-3-yl)-1,2-oxaborolan-2-ol] | 2.04 | 1.08 |  |  |  | 0.9 | 988
CCOc1cc(-c2cncc(C3COB(O)C3)c2C)c(F)cc1OC (centres unmarked) [Example 141, 4-(5-(5-ethoxy-2-fluoro-4-methoxyphenyl)-4-methylpyridin-3-yl)-1,2-oxaborolan-2-ol] | 0.95 | 3.35 |  |  |  | 2.24 | 701
CCCOc1cccc(-c2cncc(C3COB(O)C3)c2)c1 (centres unmarked) [Example 145, 4-(5-(3-propoxphenyl)pyridin-3-yl)-1,2-oxaborolan-2-ol] | 6.77 | 103 |  |  |  | 52.1 | 2240

Source: patent US11559538B2, “Substituted 1,2-oxaborolan-2-ols as PDE4 inhibitors” (Pfizer Inc., priority 2018, dated 2023)
